Tests used:
[1] = system: Aptamer 21; experiment: LC-MS analysis of cross-linked RNA; format: binding
Procedure: (§1) Folded RNA (1.33 μM) was incubated with or without the photoaffinity probe (20 μM) in total 100 μL of buffer (20 mM TrisHCl pH 8, 100 mM KCl, 3 mM MgCl2) with 2% DMSO for 30 min at 37° C. to allow binding to come to equilibrium. The sample was then irradiated with long wave UV light (˜365 nm) for 30 min in a UV crosslinker (Fisher Scientific).
The RNA was then precipitated by adding 10 μL of 3 M sodium acetate pH 5 and 275 μL ethanol, cooling to −80° C. for 1 h, and then centrifuging at 20,500×g at 4° C. for 30 min. The RNA pellet was washed with 500 μL of 70% ethanol, air dried for 5 min, and then resuspended in 120 μL of water.
50 μL of RNA sample was injected onto Clarity 2.6 μm Oligo X-T column (50*2.1 mm, 60° C.), and the gradient and flowrate were as follows: 95% A/5% B to 75% A/25% B over 5 min, flowrate: 400 μL/min; 75% A/25% B to 30% A/70% B over 1 min, flowrate: 400 μL/min; 100% D over 1 min, flowrate: 500 μL/min; 95% A/5% B over 2 min, flowrate: 500 μL/min (A: 1% HFIPA (hexafluoroisopropyl alcohol), 0.1% DIEA (diisopropylethylamine), 1 μM EDTA (ethylenediamine tetraacetic acid) in H2O; B: 0.075% HFIPA, 0.0375% DIEA, 1 μM EDTA in 65/35 MeCN/H2O; D: 40/40/20% MeOH/MeCN/H2O); The LCMS instrument was a Thermo Finnigan LTQ, and ProMass deconvolution software coupled with Xcaliber were used for all data processing.

[2] = system: Aptamer 21; experiment: Surface plasmon resonance (SPR) binding to Aptamer 21; conditions: for binding to Aptamer 21 by SPR, separated enantiomers: 10 uM
Description: Surface plasmon resonance (SPR) may be used to screen ligands and hook and click constructs for binding to a target RNA of interest. SPR is especially useful for monitoring biomolecular interactions in real time. Typically, target species and unrelated control are immobilized to a sensor chip, then analytes (compounds/fragments) are flowed over the surface. Binding of the compound to target species results in increase of SPR signal (association phase). Washing away bound compound with buffer results in a decrease of SPR signal (dissociation phase). Fitting of sensorgrams recorded at different compound concentrations is performed to an appropriate interaction model. The method allows extraction of kinetic parameters (ka, kd→KD). Requirements/limitations include that the ka/kd values be in reasonable ranges; and the target size must not be too large (<100 kDa). It is an excellent method to screen fragments and profile or validate hits. BC4000 may be used for primary screening (up to 4,000 data pts/week). Biacore T200 is suitable for hit profiling and validation.
In the PEARL-seq context, SPR allows monitoring binding of “hooks” to DNA/RNA aptamers. The target species is immobilized to sensor chip, analytes (i.e. hooks) are flowed over surface (association phase), DNA/RNA aptamer is flowed over surface (plateau phase), competitor compound is washed over surface (dissociation phase), thus yielding binding data.
Experiments were performed on a MASS-2 (Sierra Sensors) at 25° C. A high capacity amine chip was equilibrated with PBS. The chip was conditioned with alternating injections of 10 mM HCl and 10 mM NaOH in 1 M NaCl. The carboxymethylated dextran of the surface of the amine chip was activated for 7 minutes at a flow rate of 10 μL/min using a 1:1 volume ratio of 0.4 M 1-ethyl-3-(3-dimethylaminopropyl) carbodiimide (Sierra) and 0.1 M N-hydroxysuccinimide (Sierra). Neutravidin (70 μg/mL, Thermofisher) was injected over the activated surface for 10 minutes at a flow rate of 10 μl/min. Excess activated groups were blocked by an injection of 1 M ethanolamine, pH 8.5 (Sierra) for 7 minutes at a flow rate of 10 μl/min. A final injection of 10 mM NaOH in 1 M NaCl for 7 minutes at 10 μl/min was used to remove any unbound material to the chip. The immobilization reaction typically yielded approximately 12,000 resonance units (RU) of neutravidin. At least one spot in a channel was not injected with RNA and was used as a background control. Unrelated RNA was also used as a background control.
A 1 μM sample of biotin-aptamer 21 was prepared in RNAse free water, heated to 95° C. for 3 minutes, cooled on ice for 4 minutes, diluted with an equal volume 2× folding buffer (40 mM Tris-HCl, pH 8.0, 6 mM MgCl2, 200 mM KCl), and incubated at 37° C. for 30 minutes. The final concentration of RNA was 0.5 μM.
The MASS-2 was primed 2 times with 20 mM Tris-HCl, pH 8.0, 3 mM MgCl2, 100 mM KCl (Capture Buffer). RNA was injected over the neutravidin surface for 7 minutes at a flow rate of 10 μl/min. Capture levels typically reached approximately 3500-4500 of resonance units of aptamer 21.
Compounds were diluted 2-fold in 100% DMSO at a starting concentration of 500 μM.
The MASS-2 was primed 2 times with 20 mM Tris-HCl, pH 8.0, 3 mM MgCl2, 100 mM KCl, 1% DMSO (running buffer). Prior to testing compounds 3 injections of running buffer were used to equilibrate the sensor surface. […]

[3] = system: Aptamer 21; experiment: Competition between Aptamer 21 photoprobes and RNA-binding ligands (RT pausing)
Procedure: Aptamer 21 was either incubated with probe alone (ARK-581) or probe plus a 10-fold excess of RNA-binding ligand.
Both ARK-852 and ARK-139 inhibit the photocrosslinking of probes to Aptamer 21.
as §1, with “RNA (1” for “RNA (1.33”, “with” for “with or without”, “probe (10” for “probe (20”, “total 25” for “total 100”, “with 2.5%” for “with 2%”
(§2) A 3.75 μL aliquot of 10 μM reverse transcription primer was added to the cross-linked RNA sample, which was then incubated for 5 min at 65° C. and then cooled on ice. The sample was then diluted to a final volume of 60 μL and final buffer concentration of 1× Protoscript-II buffer (New England Biolabs), 0.5 mM dNTPs, 10 mM DTT, 0.4 U/μL RNase Inhibitor (New England Biolabs), and 10 U/μL Protoscript-II (New England Biolabs). The reaction was incubated at 45° C. for 2 h, 65° C. for 20 min, and then 4° C.
(§3) The RNA was hydrolyzed by the addition of 4.8 μL of 2.5 M NaOH and heating at 95° C. for 5 min. The reaction was quenched by the addition of 0.9 μL of acetic acid. The cDNA was precipitated by the addition of 6.6 μL of 3 M sodium acetate pH 5 and 181 μL ethanol, cooling to −80° C. for 1 h, and then centrifuging at 20,500×g at 4° C. for 30 min. The cDNA pellet was washed twice with 500 μL of 70% ethanol and then air dried for 5 min.
(§4) The cDNA pellet was resuspended in 12 μL of 1×TBE-urea sample loading buffer (Bio-Rad) and heated to 95° C. for 5 min. The sample was then run on a pre-cast 8.6×6.7 cm TBE-urea 10% PAGE gel (Bio-Rad) at 120 V until the lower bromophenol blue dye reached the bottom of the gel. The gel was stained with 1×SYBR-gold (Invitrogen) in 1×TBE buffer at room temperature for 20 min covered from light. The gel fluorescence was imaged on an Azure c600 instrument.

[4] = system: Aptamer 21; experiment: Reverse transcriptase pausing (drop-off) gel assay of photo-crosslinking to Aptamer 21; format: binding; conditions: FIG. 52
Procedure: A solution of RNA at 2 to 5 μM in nuclease-free water was heated to 95° C. for 3 min and then cooled on ice for 2 min. This solution was diluted with ½ volume of 3×RNA folding buffer (60 mM TrisHCl pH 8, 300 mM KCl, 9 mM MgCl2) and incubated at 37° C. for 20 min. Folding was carried out immediately before use of the RNA in each experiment. In cases where a mixture of RNA molecules was used in vitro the RNAs were folded separately and then combined prior to the probing experiment.
as §1, with “RNA (1” for “RNA (1.33”, “with” for “with or without”, “probe (10” for “probe (20”, “total 25” for “total 100”, “with 2.5%” for “with 2%”
as §2, §3, §4

## COC(=O)C1=C(COCc2cn(CCOCCOCCNC(=O)c3ccc(N=[N+]=[N-])cc3)nn2)NC(c2ccncc2)=NC1c1ccc(F)cc1Cl (stereo not shown) [ARK-581]
[1]
  covalent modification of the RNA by LC-MS: 10%

## COC(=O)C1=C(COCc2cn(CCOCCOCCO)nn2)NC(c2ccncc2)=N[C@H]1c1ccc(F)cc1Cl [ARK-701, (R)-methyl 4-(2-chloro-4-fluorophenyl)-6-(((1-(2-(2-(2-hydroxyethoxy)ethoxy)ethyl)-1H-1,2,3-triazol-4-yl)methoxy)methyl)-2-(pyridin-4-yl)-1,4-dihydropyrimidine-5-carboxylate]
[2]
  binding to Aptamer 21 by SPR, separated enantiomers: did bind

## COC(=O)C1=C(COCc2cn(CCOCCOCCO)nn2)NC(c2ccncc2)=N[C@@H]1c1ccc(F)cc1Cl [ARK-702, (S)-methyl 4-(2-chloro-4-fluorophenyl)-6-(((1-(2-(2-(2-hydroxyethoxy)ethoxy)ethyl)-1H-1,2,3-triazol-4-yl)methoxy)methyl)-2-(pyridin-4-yl)-1,4-dihydropyrimidine-5-carboxylate]
[2]
  binding to Aptamer 21 by SPR, separated enantiomers: did not bind

## Cc1ccc(C(=O)N2Cc3ccccc3C[C@H]2C(N)=O)cc1NCc1c(F)ccc(O)c1F [ARK-852]
[3]; 10-fold excess of RNA-binding ligand over probe
  inhibition of photocrosslinking of ARK-581 to Aptamer 21: efficiently inhibited
[3]; FIG. 65
  inhibition of photocrosslinking of probes to Aptamer 21 (RT pausing competition assay): inhibit
[2]
  binding to Aptamer 21 by SPR: SPR-active

## Cc1ncccc1C(=O)n1ccnc1 [NAI, 2-methylnicotinic acid imidazolide, reference compound]
[4]
  shortened sequences produced in PEARL-seq reverse transcriptase pausing gel assay: numerous shortened sequences
